Reference: ChEMBL document CHEMBL5518207, “Structure Guided Discovery of Novel Pan Metallo-β-Lactamase Inhibitors with Improved Gram-Negative Bacterial Cell Penetration” (J Med Chem, 2024)

Legend:
[1] = target: Voltage-gated potassium channel, IKs; KCNQ1(Kv7.1)/KCNE1(MinK) (Homo sapiens, UniProt P15382+P51787); assay: Inhibition of KCNQ1/KCNE1 (unknown origin); type: protein-complex assay
[2] = system: Pseudomonas aeruginosa; assay: Potentiation of imipenem induced antibacterial activity against isogenic efflux deleted mutant Pseudomonas aeruginosa MB9799 harbouring IMP incubated for 18 to 22 hrs imipenem and beta lactamase inhibitor by spectrophotometer based analysis; type: functional; details: time 18-22 hrs
[3] = AUC in rat at 1 mg/kg, iv measured after 24 hrs by HPLC-MS analysis; type: ADME, organism-based; details: in vivo
[4] = AUC in Beagle dog at 1 mg/kg, iv measured after 24 hrs by HPLC-MS analysis; type: ADME, organism-based, Canis lupus familiaris; details: in vivo
[5] = Volume of distribution at steady state in Beagle dog at 1 mg/kg, iv measured after 24 hrs by HPLC-MS analysis; type: ADME, organism-based, Canis lupus familiaris; details: in vivo, read-out: Vdss
[6] = Cmax in Wistar rat at 30 mg/kg, iv measured after 24 hrs by HPLC-MS analysis; type: ADME, organism-based; details: in vivo
[7] = target: Cytochrome P450 2C9 (Homo sapiens, UniProt P11712); assay: Inhibition of CYP2C9 (unknown origin); type: ADME
Sequence of Cytochrome P450 2C9 (P11712 whole entry): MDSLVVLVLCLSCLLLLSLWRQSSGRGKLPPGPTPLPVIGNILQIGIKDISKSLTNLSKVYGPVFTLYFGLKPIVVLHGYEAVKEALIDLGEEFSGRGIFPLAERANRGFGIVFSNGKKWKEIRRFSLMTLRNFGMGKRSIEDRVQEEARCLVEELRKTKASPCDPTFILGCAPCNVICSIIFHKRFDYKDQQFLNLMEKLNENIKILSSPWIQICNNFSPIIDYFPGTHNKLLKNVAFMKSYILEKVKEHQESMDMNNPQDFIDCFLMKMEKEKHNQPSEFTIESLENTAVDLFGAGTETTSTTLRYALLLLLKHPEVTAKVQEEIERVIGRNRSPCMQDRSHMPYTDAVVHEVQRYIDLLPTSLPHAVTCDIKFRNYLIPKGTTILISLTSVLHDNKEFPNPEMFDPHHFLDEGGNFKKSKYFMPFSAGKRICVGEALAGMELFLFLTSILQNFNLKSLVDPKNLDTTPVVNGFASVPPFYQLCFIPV

[8] = target: Cytochrome P450 2D6 (Homo sapiens, UniProt P10635); assay: Inhibition of CYP2D6 (unknown origin); type: ADME
Sequence of Cytochrome P450 2D6 (P10635 whole entry): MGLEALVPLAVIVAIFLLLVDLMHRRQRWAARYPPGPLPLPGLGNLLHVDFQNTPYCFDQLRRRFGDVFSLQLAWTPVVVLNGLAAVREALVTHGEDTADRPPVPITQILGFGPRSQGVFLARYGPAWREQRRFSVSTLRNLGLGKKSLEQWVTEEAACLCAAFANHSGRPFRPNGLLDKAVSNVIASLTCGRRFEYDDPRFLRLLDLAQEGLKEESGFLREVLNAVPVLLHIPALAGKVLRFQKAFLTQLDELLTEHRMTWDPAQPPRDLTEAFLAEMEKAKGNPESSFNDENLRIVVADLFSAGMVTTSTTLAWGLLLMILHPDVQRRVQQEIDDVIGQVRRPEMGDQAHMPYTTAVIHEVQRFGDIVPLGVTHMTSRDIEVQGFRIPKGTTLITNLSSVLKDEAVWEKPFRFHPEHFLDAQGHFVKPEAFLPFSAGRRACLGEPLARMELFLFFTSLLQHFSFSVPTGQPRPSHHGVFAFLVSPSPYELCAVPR

[9] = Cmax in Beagle dog at 1 mg/kg, iv measured after 24 hrs by HPLC-MS analysis; type: ADME, organism-based, Canis lupus familiaris; details: in vivo
[10] = target: Voltage-gated inwardly rectifying potassium channel KCNH2 (Homo sapiens, UniProt Q12809); assay: Inhibition of human ERG; type: toxicity
[11] = system: Pseudomonas aeruginosa; assay: Potentiation of imipenem induced antibacterial activity against isogenic efflux wild type Pseudomonas aeruginosa MB9798 harbouring IMP incubated for 18 to 22 hrs imipenem and beta lactamase inhibitor by spectrophotometer based analysis; type: functional; details: time 18-22 hrs
[12] = target: T1, Cytochrome P450 2C8 (Homo sapiens, UniProt P10632); assay: Inhibition of CYP2C8 (unknown origin); type: ADME
T1 sequence (P10632 whole entry): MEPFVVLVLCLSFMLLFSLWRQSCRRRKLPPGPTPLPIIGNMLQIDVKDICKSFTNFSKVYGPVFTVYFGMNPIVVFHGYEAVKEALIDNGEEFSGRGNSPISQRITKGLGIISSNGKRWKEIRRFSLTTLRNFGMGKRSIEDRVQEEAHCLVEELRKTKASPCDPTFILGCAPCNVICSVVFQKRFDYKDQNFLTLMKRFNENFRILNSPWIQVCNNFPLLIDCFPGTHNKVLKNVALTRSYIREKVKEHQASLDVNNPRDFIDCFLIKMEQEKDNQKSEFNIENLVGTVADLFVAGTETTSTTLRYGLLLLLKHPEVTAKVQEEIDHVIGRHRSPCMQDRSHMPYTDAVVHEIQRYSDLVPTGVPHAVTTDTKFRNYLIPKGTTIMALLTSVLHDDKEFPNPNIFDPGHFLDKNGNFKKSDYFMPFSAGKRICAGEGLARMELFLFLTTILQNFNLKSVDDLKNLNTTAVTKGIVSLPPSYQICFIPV

[13] = system: Pseudomonas aeruginosa; assay: Efflux ratio of MITC95 for potentiation of imipenem induced antibacterial activity against isogenic efflux wild type Pseudomonas aeruginosa MB9798 harbouring IMP to MITC95 for potentiation of imipenem induced antibacterial activity against isogenic efflux deleted mutant Pseudomonas aeruginosa MB9799 harbouring IMP; type: functional
[14] = system: Serratia marcescens; assay: Potentiation of imipenem induced antibacterial activity against Serratia marcescens CL5741 harbouring IMP-1 incubated for 18 to 22 hrs imipenem by spectrophotometer based analysis; type: functional; details: time 18-22 hrs
[15] = Cmax in rat at 1 mg/kg, iv measured after 24 hrs by HPLC-MS analysis; type: ADME, organism-based; details: in vivo
[16] = Clearance in rat at 1 mg/kg, iv measured after 24 hrs by HPLC-MS analysis; type: ADME, organism-based; details: in vivo
[17] = Inhibition of GST tagged VIM-2 (unknown origin) expressed in Escherichia coli BL21 Star (DE3) competent cells using CCF2-FA as substrate incubated for 2 hrs by fluorescence based analysis
[18] = MRT in rat at 1 mg/kg, iv measured after 24 hrs by HPLC-MS analysis; type: ADME, organism-based; details: in vivo
[19] = Inhibition of GST tagged NDM-1 (unknown origin) expressed in Escherichia coli BL21 Star (DE3) competent cells using CCF2-FA as substrate incubated for 2 hrs by fluorescence based analysis
[20] = target: Cytochrome P450 3A4 (Homo sapiens, UniProt P08684); assay: Inhibition of CYP3A4 (unknown origin); type: ADME
Sequence of Cytochrome P450 3A4 (P08684 whole entry): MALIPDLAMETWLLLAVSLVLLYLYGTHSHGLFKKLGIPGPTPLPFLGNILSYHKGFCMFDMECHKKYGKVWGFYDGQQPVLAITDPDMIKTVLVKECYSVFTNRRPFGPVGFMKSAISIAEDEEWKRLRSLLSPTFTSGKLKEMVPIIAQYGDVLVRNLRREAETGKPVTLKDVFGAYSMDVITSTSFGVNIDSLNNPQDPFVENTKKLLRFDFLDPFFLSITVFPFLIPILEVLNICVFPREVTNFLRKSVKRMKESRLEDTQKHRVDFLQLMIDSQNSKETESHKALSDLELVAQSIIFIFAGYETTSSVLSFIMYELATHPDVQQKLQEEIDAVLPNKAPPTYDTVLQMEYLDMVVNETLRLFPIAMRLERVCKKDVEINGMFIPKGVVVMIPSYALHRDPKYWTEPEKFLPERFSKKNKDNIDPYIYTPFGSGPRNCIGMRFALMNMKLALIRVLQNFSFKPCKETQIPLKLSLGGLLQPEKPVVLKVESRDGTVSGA

[21] = system: Escherichia coli; assay: Potentiation of imipenem induced antibacterial activity against Escherichia coli CLB30005 harbouring NDM-1 incubated for 18 to 22 hrs in presence of imipenem by spectrophotometer based analysis; type: functional; details: time 18-22 hrs
[22] = Toxicity in Beagle dog assessed as increase in histamine level in plasma at 1 mg/kg, iv measured upto 24 hrs by HPLC-MS analysis; type: organism-based, Canis lupus familiaris; details: in vivo
[23] = Unbound fraction in Beagle dog plasma at 1 mg/kg, iv measured after 24 hrs by HPLC-MS analysis; type: ADME, organism-based, Canis lupus familiaris
[24] = Inhibition of GST tagged VIM-1 (unknown origin) expressed in Escherichia coli BL21 Star (DE3) competent cells using CCF2-FA as substrate incubated for 2 hrs by fluorescence based analysis
[25] = Volume of distribution at steady state in rat at 1 mg/kg, iv measured after 24 hrs by HPLC-MS analysis; type: ADME, organism-based; details: in vivo, read-out: Vdss
[26] = target: Voltage-dependent L-type calcium channel subunit alpha-1C (Homo sapiens, UniProt Q13936); assay: Inhibition of Cav1.2 channel (unknown origin)
Sequence of Voltage-dependent L-type calcium channel subunit alpha-1C (Q13936 whole entry): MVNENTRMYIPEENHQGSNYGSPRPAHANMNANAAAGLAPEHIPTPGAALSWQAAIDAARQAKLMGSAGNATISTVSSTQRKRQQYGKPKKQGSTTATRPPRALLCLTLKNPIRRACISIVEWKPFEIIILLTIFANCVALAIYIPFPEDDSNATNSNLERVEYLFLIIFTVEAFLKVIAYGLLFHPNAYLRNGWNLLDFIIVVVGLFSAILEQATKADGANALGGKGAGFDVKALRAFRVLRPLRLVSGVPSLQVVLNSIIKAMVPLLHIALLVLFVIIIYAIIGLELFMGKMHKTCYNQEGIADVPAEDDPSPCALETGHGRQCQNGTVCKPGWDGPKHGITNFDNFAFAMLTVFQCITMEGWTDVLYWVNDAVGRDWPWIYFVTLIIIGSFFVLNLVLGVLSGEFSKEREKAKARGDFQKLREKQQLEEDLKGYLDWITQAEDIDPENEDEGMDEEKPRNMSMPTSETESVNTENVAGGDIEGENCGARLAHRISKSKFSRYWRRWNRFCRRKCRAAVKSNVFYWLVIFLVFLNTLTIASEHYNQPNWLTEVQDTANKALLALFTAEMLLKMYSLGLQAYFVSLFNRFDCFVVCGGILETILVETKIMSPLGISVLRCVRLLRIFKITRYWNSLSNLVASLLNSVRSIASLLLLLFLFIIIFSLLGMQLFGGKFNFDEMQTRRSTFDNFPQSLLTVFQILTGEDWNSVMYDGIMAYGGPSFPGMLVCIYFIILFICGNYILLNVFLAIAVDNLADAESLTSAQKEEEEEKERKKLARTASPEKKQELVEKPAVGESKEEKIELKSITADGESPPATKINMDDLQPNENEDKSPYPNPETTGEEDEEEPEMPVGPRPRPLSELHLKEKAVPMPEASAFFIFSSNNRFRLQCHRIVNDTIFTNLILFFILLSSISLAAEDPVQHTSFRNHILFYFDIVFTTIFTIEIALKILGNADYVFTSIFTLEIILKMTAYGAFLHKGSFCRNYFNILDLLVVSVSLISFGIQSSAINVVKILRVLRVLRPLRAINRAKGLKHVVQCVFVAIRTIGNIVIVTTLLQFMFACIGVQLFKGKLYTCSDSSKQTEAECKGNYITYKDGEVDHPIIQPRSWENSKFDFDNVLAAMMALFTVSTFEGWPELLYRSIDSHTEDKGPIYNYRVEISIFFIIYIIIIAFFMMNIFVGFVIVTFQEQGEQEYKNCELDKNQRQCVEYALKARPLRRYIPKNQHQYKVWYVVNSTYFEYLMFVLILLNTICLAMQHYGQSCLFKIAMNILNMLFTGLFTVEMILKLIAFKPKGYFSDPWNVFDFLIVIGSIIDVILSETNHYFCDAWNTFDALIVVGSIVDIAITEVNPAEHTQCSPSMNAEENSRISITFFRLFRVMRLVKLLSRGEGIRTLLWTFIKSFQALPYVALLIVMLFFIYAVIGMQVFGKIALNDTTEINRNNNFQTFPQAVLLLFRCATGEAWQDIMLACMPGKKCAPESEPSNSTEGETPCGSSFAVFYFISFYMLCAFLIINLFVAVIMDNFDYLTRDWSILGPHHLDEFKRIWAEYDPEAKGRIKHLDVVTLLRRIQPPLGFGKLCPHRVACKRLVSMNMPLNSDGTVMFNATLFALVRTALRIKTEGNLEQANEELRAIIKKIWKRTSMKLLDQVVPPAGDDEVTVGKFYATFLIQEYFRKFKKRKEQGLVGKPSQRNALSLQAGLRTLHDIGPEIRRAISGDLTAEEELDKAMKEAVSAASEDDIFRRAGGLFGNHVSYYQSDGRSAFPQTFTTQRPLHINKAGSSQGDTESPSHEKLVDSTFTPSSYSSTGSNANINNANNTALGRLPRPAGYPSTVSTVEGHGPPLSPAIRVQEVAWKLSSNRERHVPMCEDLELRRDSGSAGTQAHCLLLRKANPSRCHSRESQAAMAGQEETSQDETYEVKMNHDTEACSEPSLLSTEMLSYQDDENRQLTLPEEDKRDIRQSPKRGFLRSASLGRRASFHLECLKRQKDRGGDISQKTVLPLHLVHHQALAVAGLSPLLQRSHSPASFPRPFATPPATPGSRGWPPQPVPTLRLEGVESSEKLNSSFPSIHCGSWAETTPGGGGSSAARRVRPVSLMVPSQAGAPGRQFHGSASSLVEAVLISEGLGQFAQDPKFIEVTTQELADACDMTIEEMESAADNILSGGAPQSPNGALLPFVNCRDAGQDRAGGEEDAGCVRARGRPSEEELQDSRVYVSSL

[27] = Toxicity in Wistar rat assessed as decrease in mean blood pressure at 30 mg/kg, iv measured after 20 mins; type: organism-based; details: in vivo
[28] = Toxicity in Beagle dog assessed as emesis at 1 mg/kg, iv measured after 24 hrs by HPLC-MS analysis; type: organism-based, Canis lupus familiaris; details: in vivo
[29] = target: Sodium channel protein type 5 subunit alpha (Homo sapiens, UniProt Q14524); assay: Inhibition of NaV 1.5 channel (unknown origin)
[30] = Unbound fraction in rat plasma at 1 mg/kg, iv measured after 24 hrs by HPLC-MS analysis; type: ADME, organism-based
[31] = system: Klebsiella pneumoniae; assay: Potentiation of imipenem induced antibacterial activity against Klebsiella pneumoniae IHMA599644 harbouring VIM-1 incubated for 18 to 22 hrs imipenem by spectrophotometer based analysis; type: functional; details: time 18-22 hrs
[32] = Toxicity in Beagle dog assessed as appearance of watery eyes at 1 mg/kg, iv measured after 24 hrs by HPLC-MS analysis; type: organism-based, Canis lupus familiaris; details: in vivo
[33] = Toxicity in Wistar rat assessed as increase in histamine concentration in plasma at 30 mg/kg, iv measured after 24 hrs; type: organism-based; details: in vivo
[34] = Inhibition of GST tagged IMP-1 (unknown origin) expressed in Escherichia coli BL21 Star (DE3) competent cells using CCF2-FA as substrate incubated for 2 hrs by fluorescence based analysis
[35] = Clearance in Beagle dog at 1 mg/kg, iv measured after 24 hrs by HPLC-MS analysis; type: ADME, organism-based, Canis lupus familiaris; details: in vivo
[36] = MRT in Beagle dog at 1 mg/kg, iv measured after 24 hrs by HPLC-MS analysis; type: ADME, organism-based, Canis lupus familiaris; details: in vivo
[37] = Toxicity in Wistar rat assessed as decrease in mean blood pressure at 100 mg/kg, iv measured after 20 mins; type: organism-based; details: in vivo
[38] = AUC in rat at 5 mg/kg, iv measured after 24 hrs by HPLC-MS analysis; type: ADME, organism-based; details: in vivo
[39] = Clearance in rat at 5 mg/kg, iv measured after 24 hrs by HPLC-MS analysis; type: ADME, organism-based; details: in vivo
[40] = Toxicity in Beagle dog assessed as drug tolerability at 1 mg/kg, iv measured after 24 hrs by HPLC-MS analysis; type: organism-based, Canis lupus familiaris; details: in vivo
[41] = Volume of distribution at steady state in rat at 5 mg/kg, iv measured after 24 hrs by HPLC-MS analysis; type: ADME, organism-based; details: in vivo, read-out: Vdss
[42] = Unbound fraction in rat plasma at 5 mg/kg, iv measured after 24 hrs by HPLC-MS analysis; type: ADME, organism-based
[43] = Cmax in Wistar rat at 100 mg/kg, iv measured after 24 hrs by HPLC-MS analysis; type: ADME, organism-based; details: in vivo
[44] = Cmax in rat at 5 mg/kg, iv measured after 24 hrs by HPLC-MS analysis; type: ADME, organism-based; details: in vivo
[45] = Toxicity in Wistar rat assessed as increase in histamine concentration in plasma at 100 mg/kg, iv measured after 24 hrs; type: organism-based; details: in vivo
[46] = MRT in rat at 5 mg/kg, iv measured after 24 hrs by HPLC-MS analysis; type: ADME, organism-based; details: in vivo

Sequence of Voltage-gated potassium channel, IKs; KCNQ1(Kv7.1)/KCNE1(MinK) (P51787 whole entry): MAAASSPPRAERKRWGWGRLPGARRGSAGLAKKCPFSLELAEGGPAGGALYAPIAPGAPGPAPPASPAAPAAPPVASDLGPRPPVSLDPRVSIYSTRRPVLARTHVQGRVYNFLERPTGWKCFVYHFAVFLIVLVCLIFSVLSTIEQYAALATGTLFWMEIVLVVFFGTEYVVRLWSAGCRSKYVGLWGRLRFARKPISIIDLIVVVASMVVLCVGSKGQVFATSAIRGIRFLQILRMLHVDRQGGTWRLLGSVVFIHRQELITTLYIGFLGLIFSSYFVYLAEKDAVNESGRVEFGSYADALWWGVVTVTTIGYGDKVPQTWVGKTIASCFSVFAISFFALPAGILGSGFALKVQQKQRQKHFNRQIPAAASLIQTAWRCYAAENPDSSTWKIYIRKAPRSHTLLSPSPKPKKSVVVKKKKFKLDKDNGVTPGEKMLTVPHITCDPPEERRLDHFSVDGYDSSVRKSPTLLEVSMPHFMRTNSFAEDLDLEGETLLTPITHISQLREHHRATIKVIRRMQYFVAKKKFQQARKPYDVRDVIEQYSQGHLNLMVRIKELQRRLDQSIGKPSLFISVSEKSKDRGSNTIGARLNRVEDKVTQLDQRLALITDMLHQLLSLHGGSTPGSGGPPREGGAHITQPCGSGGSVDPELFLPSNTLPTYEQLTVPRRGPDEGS

Row | SMILES | IC50 [1] | MITC95 [2] | IC50 [7] | IC50 [8] | Cmax [9] | IC50 [10] | MITC95 [11] | IC50 [12] | Ratio [13] | MITC95 [14] | IC50 [17] | IC50 [19] | IC50 [20] | MITC95 [21] | IC50 [24] | IC50 [26] | IC50 [29] | MITC95 [31] | IC50 [34] | further results
1 | NS(=O)(=O)c1c(CC2CCNCC2)ccc(-c2ccc(C3CCNCC3)cc2)c1-c1nn[nH]n1 | > 30 µM | 0.8 µM | > 50 µM | > 50 µM | 15 µM | > 30 µM | 4.4 µM | > 50 µM | 6 | 3.9 µM | 1.23 µM | 0.011 µM | > 50 µM | 2 µM | 0.005 µM | > 30 µM | > 30 µM | 2.3 µM | 0.024 µM | AUC at 24 h [3]: 5.5 µM·h; AUC at 24 h [4]: 10.4 µM·h; Vd [5]: 0.45 L/kg; Cmax [6]: 459 µM; Cmax [15]: 8.6 µM; clearance [16]: 6.4 mL/min/kg; MRT [18]: 52.8 min; Activity [22]: Toxic; fraction unbound at 24 h [23]: 0.84; Vd [25]: 0.34 L/kg; Activity [27]: Toxic; Activity [28]: Toxic; fraction unbound at 24 h [30]: 0.8; Activity [32]: Toxic; Activity [33]: Toxic; clearance [35]: 3.5 mL/min/kg; MRT [36]: 192 min
2 | NS(=O)(=O)c1c(C(F)(F)F)ccc(-c2ccc(C3CCN(CC4CNC4)CC3)cc2)c1-c1nnn[nH]1 | > 30 µM | 0.39 µM | > 50 µM | > 50 µM | 13.8 µM | > 30 µM | 4.7 µM | > 50 µM | 12 | 1.6 µM | 0.062 µM | 0.0023 µM | > 50 µM | 0.6 µM | 0.0038 µM | > 30 µM | > 30 µM | 7.8 µM | 0.0004 µM | Activity [37]: Toxic; AUC at 24 h [38]: 9.6 µM·h; clearance [39]: 19 mL/min/kg; Activity [40]: Non-Toxic; Vd [41]: 0.73 L/kg; fraction unbound at 24 h [42]: 0.35; Cmax [43]: 726 µM; Cmax [44]: 33.1 µM; Activity [45]: Toxic; MRT [46]: 42.6 min
